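All cell lines were grown in 96-well plates and treated with compound for 48 hours. At the GI50, growth is halved.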 The source made the active and inactive calls. Cut-off read from the data, not from the text of the source: active = GI50 up to about 1.1 µM and inactive = higher.
Key:
Test in all cases: NCI anticancer screen, dose series, 48 h
SK-OV-3 = test system: SK-OV-3
IGROV-1 = test system: IGROV-1
ACHN = test system: ACHN
NCI-H460 = test system: NCI-H460
SF-539 = test system: SF-539
M14 = test system: M14
HCC 2998 = test system: HCC 2998
NCI-H23 = test system: NCI-H23
HOP-62 = test system: HOP-62
SW-620 = test system: SW-620
DMS-273 = test system: DMS-273
KM-20L2 = test system: KM-20L2
LXFL 529 = test system: LXFL 529
OVCAR-3 = test system: OVCAR-3
HT-29 = test system: HT-29
A498 = test system: A498
DLD-1 = test system: DLD-1
CAKI-1 = test system: CAKI-1
HOP-18 = test system: HOP-18
786-0 = test system: 786-0
SNB-19 = test system: SNB-19
RXF 631 = test system: RXF 631
SNB-78 = test system: SNB-78
A549 = test system: A549
SN12C = test system: SN12C
OVCAR-4 = test system: OVCAR-4
SNB-75 = test system: SNB-75
Malme-3M = test system: Malme-3M
U-251 = test system: U-251
MOLT-4 = test system: MOLT-4
EKVX = test system: EKVX
SF-268 = test system: SF-268
XF498 = test system: XF498
M19-MEL = test system: M19-MEL
COLO 205 = test system: COLO 205
HOP-92 = test system: HOP-92
DMS-114 = test system: DMS-114
SK-MEL-28 = test system: SK-MEL-28
SK-MEL-2 = test system: SK-MEL-2
SR = test system: SR
KM12 = test system: KM12
SF-295 = test system: SF-295
UACC-257 = test system: UACC-257
UACC-62 = test system: UACC-62
TK-10 = test system: TK-10
CCRF-CEM = test system: CCRF-CEM
NCI-H226 = test system: NCI-H226
NCI-H522 = test system: NCI-H522
SK-MEL-5 = test system: SK-MEL-5
OVCAR-5 = test system: OVCAR-5
OVCAR-8 = test system: OVCAR-8
HL-60 = test system: HL-60
UO-31 = test system: UO-31
K562 = test system: K562
HCT-116 = test system: HCT-116
RPMI-8226 = test system: RPMI-8226
HCT-15 = test system: HCT-15
LOX IMVI = test system: LOX IMVI

## Cc1ccc(NC(=O)/C(=N\NC(N)=S)C(C#N)c2ccccc2C)cc1C (stereo not drawn)
SK-OV-3
  GI50: > 100 µM (inactive)
IGROV-1
  GI50: > 100 µM (inactive)
ACHN
  GI50: > 100 µM (inactive)
NCI-H460
  GI50: > 100 µM (inactive)
SF-539
  GI50: > 100 µM (inactive)
M14
  GI50: > 100 µM (inactive)
HCC 2998
  GI50: > 100 µM (inactive)
NCI-H23
  GI50: > 100 µM (inactive)
HOP-62
  GI50: > 100 µM (inactive)
SW-620
  GI50: > 100 µM (inactive)
DMS-273
  GI50: > 100 µM (inactive)
KM-20L2
  GI50: > 100 µM (inactive)
LXFL 529
  GI50: > 100 µM (inactive)
OVCAR-3
  GI50: > 100 µM (inactive)
HT-29
  GI50: > 100 µM (inactive)
A498
  GI50: > 100 µM (inactive)
DLD-1
  GI50: > 100 µM (inactive)
CAKI-1
  GI50: > 100 µM (inactive)
HOP-18
  GI50: > 100 µM (inactive)
786-0
  GI50: > 100 µM (inactive)
SNB-19
  GI50: > 100 µM (inactive)
RXF 631
  GI50: > 100 µM (inactive)
SNB-78
  GI50: > 100 µM (inactive)
A549
  GI50: > 100 µM (inactive)
SN12C
  GI50: > 100 µM (inactive)
OVCAR-4
  GI50: > 100 µM (inactive)
SNB-75
  GI50: 66.5 µM (inactive)
Malme-3M
  GI50: > 100 µM (inactive)
U-251
  GI50: > 100 µM (inactive)
MOLT-4
  GI50: > 100 µM (inactive)
EKVX
  GI50: > 100 µM (inactive)
SF-268
  GI50: > 100 µM (inactive)
XF498
  GI50: > 100 µM (inactive)
M19-MEL
  GI50: > 100 µM (inactive)
COLO 205
  GI50: > 100 µM (inactive)
HOP-92
  GI50: > 100 µM (inactive)
DMS-114
  GI50: > 100 µM (inactive)
SK-MEL-28
  GI50: > 100 µM (inactive)
SK-MEL-2
  GI50: > 100 µM (inactive)
SR
  GI50: > 100 µM (inactive)
KM12
  GI50: > 100 µM (inactive)
SF-295
  GI50: > 100 µM (inactive)
UACC-257
  GI50: > 100 µM (inactive)
UACC-62
  GI50: > 100 µM (inactive)
TK-10
  GI50: > 100 µM (inactive)
CCRF-CEM
  GI50: > 100 µM (inactive)
NCI-H226
  GI50: > 100 µM (inactive)
NCI-H522
  GI50: > 100 µM (inactive)
SK-MEL-5
  GI50: > 100 µM (inactive)
OVCAR-5
  GI50: > 100 µM (inactive)
OVCAR-8
  GI50: > 100 µM (inactive)
HL-60
  GI50: > 100 µM (inactive)
UO-31
  GI50: > 100 µM (inactive)
K562
  GI50: > 100 µM (inactive)
HCT-116
  GI50: > 100 µM (inactive)
RPMI-8226
  GI50: > 100 µM (inactive)
HCT-15
  GI50: > 100 µM

## Oc1ccc([Te]CCNCC[Te]c2ccc(O)cc2)cc1
SK-OV-3
  GI50: 25 µM (inactive)
IGROV-1
  GI50: 27.9 µM (inactive)
ACHN
  GI50: 20.1 µM (inactive)
NCI-H460
  GI50: 4.67 µM (inactive)
SF-539
  GI50: > 10 µM (inactive)
M14
  GI50: 17.6 µM (inactive)
HCC 2998
  GI50: 12.8 µM (inactive)
NCI-H23
  GI50: 4.78 µM (inactive)
HOP-62
  GI50: 18.2 µM (inactive)
SW-620
  GI50: 23.1 µM (inactive)
DMS-273
  GI50: 18.2 µM (inactive)
KM-20L2
  GI50: 14.4 µM (inactive)
LXFL 529
  GI50: 3.41 µM (inactive)
HT-29
  GI50: 15.6 µM (inactive)
A498
  GI50: 13.4 µM (inactive)
DLD-1
  GI50: 23 µM (inactive)
CAKI-1
  GI50: 30.5 µM (inactive)
HOP-18
  GI50: 26.4 µM (inactive)
786-0
  GI50: 28.7 µM (inactive)
SNB-19
  GI50: 40.9 µM (inactive)
RXF 631
  GI50: 6.05 µM (inactive)
SNB-78
  GI50: 22 µM (inactive)
A549
  GI50: 3.66 µM (inactive)
SN12C
  GI50: 9.82 µM (inactive)
SNB-75
  GI50: 6.55 µM (inactive)
Malme-3M
  GI50: 22.6 µM (inactive)
U-251
  GI50: 6.22 µM (inactive)
MOLT-4
  GI50: 4.49 µM (inactive)
EKVX
  GI50: 3.56 µM (inactive)
SF-268
  GI50: 11.1 µM (inactive)
XF498
  GI50: 5.11 µM (inactive)
M19-MEL
  GI50: 7.29 µM (inactive)
COLO 205
  GI50: 7.13 µM (inactive)
SR
  GI50: 5.19 µM (inactive)
KM12
  GI50: 15 µM (inactive)
SF-295
  GI50: 4.32 µM (inactive)
UACC-257
  GI50: 36 µM (inactive)
UACC-62
  GI50: 17 µM (inactive)
TK-10
  GI50: 30.3 µM (inactive)
LOX IMVI
  GI50: 12.5 µM (inactive)
CCRF-CEM
  GI50: 2.97 µM (inactive)
NCI-H226
  GI50: 21.3 µM (inactive)
SK-MEL-5
  GI50: 11.9 µM (inactive)
OVCAR-5
  GI50: 16 µM (inactive)
OVCAR-8
  GI50: 16.3 µM (inactive)
HL-60
  GI50: 5.55 µM (inactive)
UO-31
  GI50: 9.2 µM (inactive)
K562
  GI50: 10 µM (inactive)
HCT-116
  GI50: 5.96 µM (inactive)
RPMI-8226
  GI50: 16.4 µM (inactive)

## Nn1c(-c2ccccc2)nc2ccc(Br)cc2c1=O
SK-OV-3
  GI50: 61.5 µM (inactive)
IGROV-1
  GI50: 44.8 µM (inactive)
ACHN
  GI50: 34.8 µM (inactive)
NCI-H460
  GI50: 61.4 µM (inactive)
SF-539
  GI50: 53.8 µM (inactive)
M14
  GI50: 54.1 µM (inactive)
HCC 2998
  GI50: 62.7 µM (inactive)
NCI-H23
  GI50: 81.5 µM (inactive)
HOP-62
  GI50: > 10 µM (inactive)
SW-620
  GI50: 46.6 µM (inactive)
DMS-273
  GI50: 40.2 µM (inactive)
KM-20L2
  GI50: > 100 µM (inactive)
LXFL 529
  GI50: 34 µM (inactive)
OVCAR-3
  GI50: 24 µM (inactive)
HT-29
  GI50: 61 µM (inactive)
A498
  GI50: 70.5 µM (inactive)
DLD-1
  GI50: 35.3 µM (inactive)
CAKI-1
  GI50: 38.5 µM (inactive)
HOP-18
  GI50: 17.5 µM (inactive)
786-0
  GI50: 47.2 µM (inactive)
SNB-19
  GI50: 95.3 µM (inactive)
RXF 631
  GI50: 59 µM (inactive)
SNB-78
  GI50: 85.7 µM (inactive)
A549
  GI50: > 100 µM (inactive)
SN12C
  GI50: 42.7 µM (inactive)
OVCAR-4
  GI50: 28.6 µM (inactive)
SNB-75
  GI50: > 100 µM (inactive)
Malme-3M
  GI50: 15.1 µM (inactive)
U-251
  GI50: 41.4 µM (inactive)
MOLT-4
  GI50: 17.9 µM (inactive)
EKVX
  GI50: 31.9 µM (inactive)
SF-268
  GI50: 30.7 µM (inactive)
XF498
  GI50: 13.7 µM (inactive)
M19-MEL
  GI50: 89.5 µM (inactive)
COLO 205
  GI50: 32.1 µM (inactive)
HOP-92
  GI50: 12.8 µM (inactive)
DMS-114
  GI50: 31.8 µM (inactive)
SK-MEL-28
  GI50: > 100 µM (inactive)
SK-MEL-2
  GI50: 57.1 µM (inactive)
KM12
  GI50: 86.1 µM (inactive)
SF-295
  GI50: 58.1 µM (inactive)
UACC-257
  GI50: > 100 µM (inactive)
UACC-62
  GI50: 45.9 µM (inactive)
TK-10
  GI50: > 100 µM (inactive)
CCRF-CEM
  GI50: 20.2 µM (inactive)
NCI-H226
  GI50: 57.5 µM (inactive)
NCI-H522
  GI50: 33.7 µM (inactive)
SK-MEL-5
  GI50: 53.1 µM (inactive)
OVCAR-5
  GI50: > 100 µM (inactive)
OVCAR-8
  GI50: 35.4 µM (inactive)
HL-60
  GI50: 15.6 µM (inactive)
UO-31
  GI50: 24.4 µM (inactive)
K562
  GI50: 29.3 µM (inactive)
HCT-116
  GI50: 35.3 µM (inactive)
RPMI-8226
  GI50: 30.9 µM (inactive)
HCT-15
  GI50: 40.8 µM

Source: ChEMBL document CHEMBL1201862, “PubChem BioAssay data set” (2004)
